Structures are written as SMILES.

In the assay the target is T1, human IL-17AA (Homo sapiens, UniProt Q16552).
T1 construct: host or cells: HEK (human embryonic kidney) cells
T1 sequence (Q16552 24-155) 1: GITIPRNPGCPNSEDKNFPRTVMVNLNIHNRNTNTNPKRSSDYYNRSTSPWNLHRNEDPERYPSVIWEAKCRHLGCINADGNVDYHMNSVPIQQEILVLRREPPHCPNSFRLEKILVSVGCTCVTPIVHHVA
T1 sequence (Q16552 24-155) 2: T1 sequence (Q16552 24-155) 1
The assay can be described thus: IL-8 release assay in human epithelial keratinocytes adult (HEKa). As to conditions: HEKa cells; 3 ng/mL HEK-human IL-17AA + 10 ng/mL human TNFalpha; 68-72 hours; IL-8 by HTRF; read-out: Rel EC50 IL-8 release assay. Type of assay: cell-based. In short, it runs like this:
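Adult human epidermal keratinocytes treated with compound, then stimulated 68-72 h at 37 °C with HEK-derived human IL-17AA 3 ng/mL plus TNF-alpha 10 ng/mL (final); TNF-alpha alone defined 100% inhibition. Secreted IL-8 measured by HTRF (665/620 nm) as percent of controls; relative IC50 and Emax from four-parameter fits.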
For the molecule `Cc1n[nH]c(C)c1-c1ccc(NC(=O)C(c2nnc(-c3ccccn3)[nH]2)C(C2CC2)C2CC2)cc1` (stereo not drawn) [Example 58, 3,3-dicyclopropyl-N-[4-(3,5-dimethyl-1H-pyrazol-4-yl)phenyl]-2-[5-(2-pyridyl)-4H-1,2,4-triazol-3-yl]propanamide], the EC50 is 310 nM.

For the molecule `Cc1cccc(-c2nnc(C(C(=O)Nc3ccc(-c4c(C)n[nH]c4C)cc3)C(C3CC3)C3CC3)[nH]2)n1` (stereo not drawn) [Example 59, 3,3-dicyclopropyl-N-[4-(3,5-dimethyl-1H-pyrazol-4-yl)phenyl]-2-[5-(6-methyl-2-pyridyl)-4H-1,2,4-triazol-3-yl]propanamide], the EC50 amounted to 45 nM.

On to `Cc1cccnc1-c1nnc(C(C(=O)Nc2ccc(-c3c(C)n[nH]c3C)cc2)C(C2CC2)C2CC2)[nH]1` (stereo not drawn) [Example 60, 3,3-dicyclopropyl-N-[4-(3,5-dimethyl-1H-pyrazol-4-yl)phenyl]-2-[5-(3-methyl-2-pyridyl)-4H-1,2,4-triazol-3-yl]propanamide], for which the EC50 amounted to 250 nM.

`Cc1n[nH]c(C)c1-c1ccc(NC(=O)C(c2nnc(C3CCOCC3)[nH]2)C(C2CC2)C2CC2)cc1` (stereo not drawn) [Example 61, 3,3-dicyclopropyl-N-[4-(3,5-dimethyl-1H-pyrazol-4-yl)phenyl]-2-(5-tetrahydropyran-4-yl-4H-1,2,4-triazol-3-yl)propanamide]: the EC50 turned out to be 2700 nM.

Take `Cc1n[nH]c(C)c1-c1ccc(NC(=O)C(c2nnc(C3CCOC3)[nH]2)C(C2CC2)C2CC2)cc1` (stereo not drawn) [Example 62, 3,3-dicyclopropyl-N-[4-(3,5-dimethyl-1H-pyrazol-4-yl)phenyl]-2-(5-tetrahydrofuran-3-yl-4H-1,2,4-triazol-3-yl)propanamide]: the concentration giving a half-maximal response (EC50) was 1600 nM.

With `Cc1n[nH]c(C)c1-c1ccc(NC(=O)C(c2nnc(-c3ccnc(C(F)F)c3)[nH]2)C2CCC(F)(F)CC2)cc1` (stereo not drawn) [Example 63, 2-(4,4-difluorocyclohexyl)-2-[5-[2-(difluoromethyl)-4-pyridyl]-4H-1,2,4-triazol-3-yl]-N-[4-(3,5-dimethyl-1H-pyrazol-4-yl)phenyl]acetamide], the EC50 amounted to 200 nM.

In the case of `Cc1cc(-c2nnc(C(C(=O)Nc3ccc(-c4c(C)n[nH]c4C)cc3)C3CCC(F)(F)CC3)[nH]2)ccn1` (stereo not drawn) [Example 65, 2-(4,4-difluorocyclohexyl)-N-[4-(3,5-dimethyl-1H-pyrazol-4-yl)phenyl]-2-[5-(2-methyl-4-pyridyl)-4H-1,2,4-triazol-3-yl]acetamide], the EC50 was found to be 520 nM.

`COc1cc(-c2nnc(C(C(=O)Nc3ccc(-c4c(C)n[nH]c4C)cc3)C3CCC(F)(F)CC3)[nH]2)ccn1` (stereo not drawn) [Example 66, 2-(4,4-difluorocyclohexyl)-N-[4-(3,5-dimethyl-1H-pyrazol-4-yl)phenyl]-2-[5-(2-methoxy-4-pyridyl)-4H-1,2,4-triazol-3-yl]acetamide]: the EC50 was 640 nM.

As for `CCn1nccc1-c1cnc(C(C(=O)Nc2ccc(-c3c(C)n[nH]c3C)cc2)C(C2CC2)C2CC2)[nH]1` (stereo not drawn) [Example 67, 3,3-dicyclopropyl-N-[4-(3,5-dimethyl-1H-pyrazol-4-yl)phenyl]-2-[5-(2-ethylpyrazol-3-yl)-1H-imidazol-2-yl]propanamide], the EC50 was 210 nM.

In the case of `Cc1n[nH]c(C)c1-c1ccc(NC(=O)C(c2ncc(-c3ccnn3C(C)C)[nH]2)C(C2CC2)C2CC2)cc1` (stereo not drawn) [Example 68, 3,3-dicyclopropyl-N-[4-(3,5-dimethyl-1H-pyrazol-4-yl)phenyl]-2-[5-(2-isopropylpyrazol-3-yl)-1H-imidazol-2-yl]propanamide], the EC50 worked out at 170 nM.

For `COc1cc(-c2cnc(C(C(=O)Nc3ccc(-c4c(C)n[nH]c4C)cc3)C(C3CC3)C3CC3)[nH]2)ccn1` (stereo not drawn) [Example 69, 3,3-dicyclopropyl-N-[4-(3,5-dimethyl-1H-pyrazol-4-yl)phenyl]-2-[5-(2-methoxy-4-pyridyl)-1H-imidazol-2-yl]propanamide], the EC50 is 490 nM.

Turning to `Cc1n[nH]c(C)c1-c1ccc(NC(=O)C(c2nc(F)c(-c3ccccc3)[nH]2)C(C2CC2)C2CC2)cc1` (stereo not drawn) [Example 72, 3,3-dicyclopropyl-N-[4-(3,5-dimethyl-1H-pyrazol-4-yl)phenyl]-2-(4-fluoro-5-phenyl-1H-imidazol-2-yl)propanamide], the EC50 was 260 nM.

For the origin of these results see US20230227435A1, “SMALL MOLECULE MODULATORS OF IL-17” (LEO PHARMA A/S, priority 2020, published 2023).
